Laboratory results reported in EP0785936B1, “PHOTOCHROMIC NAPHTHOXAZINE COMPOUNDS” (PPG Industries Ohio, Inc., priority 1994, dated 1996).

Experiment: Photochromic response of imbibed diethylene glycol bis(allyl carbonate) polymer test squares on an optical bench
Type: physicochemical
Settings: for Δ OD @ SATURATION: UV exposure continued for 20 minutes; for BLEACH RATE T 1/2: time for absorbance of activated form to reach one half the highest absorbance at 25.7 ± 0.5 °C after removal of activating light
Method: Comparative testing was conducted on the principle product of Example 3 and certain photochromic compounds described in U.S. Patents 4,342,668 and 4,637,698. These compounds were imbibed by thermal transfer into test squares of a polymeric matrix prepared from a diethylene glycol bis(allyl carbonate) composition by the following procedure: Each photochromic compound was dissolved in toluene to form a 4 weight percent solution of the compound. A piece of No. 4 Whatman filter paper was saturated with the toluene solution of the photochromic compound and allowed to air dry. The dried filter paper was placed on one side of the polymer test square, which measured 1/8 inch (0.3 centimeter) x 2 inch (5.1 centimeters) x 2 inch (5.1 centimeters). A piece of untreated filter paper was placed on the other side of the polymer test square and the resulting sandwich placed between two plates of flat aluminum metal plates. The entire assembly was then placed in a 155°C. oven for a time sufficient to thermally transfer the photochromic compound into the polymer test square. […] The imbibed test squares were washed with acetone after removal from the oven.
The imbibed polymer test squares were tested for photochromic response rates on an optical bench. The samples were illuminated by a 150 watt Xenon lamp fitted with a copper sulfate bath and a neutral density filter at an intensity of about one sun. A second beam of light provided by a filtered tungsten lamp arranged to pass through the sample area exposed by the UV source was used to monitor changes in transmission of the sample over different wavelength ranges in the visible region of the spectrum. The intensity of the monitoring beam after passing through the sample was measured by means of an IL-1500 radiometer equipped with a silicon detector head and matching filters.
The Δ OD/min., which represents the sensitivity of the photochromic compound's response to UV light, was measured using photopic filters on the silicon detector. The response of the filtered detector approximated the luminosity curve. The Δ OD was measured over the first five (5) seconds of UV exposure, then expressed on a per minute basis. The saturation optical density (OD) was taken under identical conditions as the Δ OD/min., except UV exposure was continued for 20 minutes. The lambda max reported in Table 2 is the wavelength in the ultraviolet range closest to the visible spectrum or in the threshold range, i.e., 390 to 410 nanometers, of the visible spectrum at which the maximum absorption and activation of the photochromic compound occurs in the polymer matrix test squares.
The bleach rate T 1/2(sec.) is the time interval in seconds for the absorbance of the activated form of the photochromic compounds in the test polymer to reach one half the highest absorbance at 25.7 ± 0.5 °C. after removal of the source of activating light.

Row | Molecule | Δ OD @ SATURATION | BLEACH RATE T 1/2 [min]
1 | 1-propyl-3,3,4,5(or 3,3,5,6)-tetramethyl-9'-methoxycarbonyl-8'-acetoxy-spiro[indoline-2,3'-[3H]naphth[2,1-b]-[1,4]oxazine] | 0.42 | 2.27
2 | 1-propyl-3,3,4,5(or 3,3,5,6)-tetramethyl-spiro[indoline-2,3'-[3H]naphth[2,1-b][1,4]oxazine] | 0.11 | 0.783
3 | CCCN1c2cc(C)c(C)cc2C(C)(C)C12C=Nc1c(ccc3ccc(OC)cc13)O2 (centres unmarked) [A, 1-propyl-3,3,5,6-tetramethyl-9'-methoxy-spiro[indoline-2,3'-[3H]naphth[2,1-b][1,4]oxazine]] | 0.11 | 1.17
4 | CCCN1c2cc(C)c(C)cc2C(C)(C)C12C=Nc1c(ccc3ncccc13)O2 (centres unmarked) [B, 1-propyl-3,3,5,6-tetramethyl-spiro[indoline-2,3'-[3H]pyrido-[3,2-f][1,4]benzoxazine]] | 0.36 | 1.15
